What was measured:
[1] = molecular target: human histamine H3 receptors (full-length H3, isoform 445) (Homo sapiens, UniProt Q9Y5N1); details: hH3 binding IC50 (nM), inhibition of 1.4 nM [3H]-N-α-methylhistamine binding to CHO-K1 membranes expressing human H3, SPA, 1.5 hr;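 also: scintillation counts read after the 1.5 hr incubation at room temperature with shaking, Imetit serving as reference control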
Description: Histamine H3 SPA with the Agonist Radioligand [^3H]—N-α-methylhistamine
Reproducibility of the assay is such that IC50 curves can be generated in singlicate. Single poke (SP) testing was done in triplicate.
Membranes, prepared from CHO-K1 cells stably expressing the human histamine H3 receptor, were obtained from ACS.
Tested formula I compounds were provided as solubilized samples in neat DMSO. Serial dilutions were performed in DMSO.
Plates were read on a Perkin Elmer TopCount. CPM data were used to analyze unless DPM data generated by a quench curve were required.
• 1. 1 mg/ml BSA was added to assay buffer (AB) on day of assay. • 2. […] Buffer volume was split between beads and membranes to allow for polytroning of membranes prior to addition to beads. • a. […] Waited a minimum of 15 minutes prior to adding membranes (See b. below.). • b. […] The homogenized membrane mixture was combined with the beads and a minimum of 30 minutes was waited prior to dispensing to plate. • 3. Formula I compounds: For Single Poke, 2 μl 1 mM of a compound in accordance with formula I was dispensed to Optiplates (triplicate plates) for final concentration of 10 μM. […] Imetit (see below) was used as a control. • 4. […] 5 μl samples were calculated in quadruplicate on the β counter. […] (For IC50s, use final concentration on calculation tab of ABase template.)
• 1. […] 2 μl of the formula I compound dilution was mixed and then transferred into assay plates. DMSO was removed and 2 μl of 100 μM Imetit was added to the wells. • 3. 178 μl bead/membrane mixture was dispensed into the assay plate. • 4. 20 μl [^3H]-NAMH was added with Rapid Plate. The assay plate was sealed and incubated for 1.5 hr on RT shaker at speed ˜6.5. • 5. The assay plate was subsequently centrifuged at 1000 rpm for 10 minutes. • 6. The count was performed on TopCount using one of the 3H SPA H3 Quench programs.
The DPM data was analyzed when tSIS was less than that associated with 70% of full scale on the quench curve (tSIS<25%). Otherwise, CPM data was used.

[2] = molecular target: T1, human Histamine H3 receptor (hH3R) (Homo sapiens, UniProt Q9Y5N1); assay: Guanosine 5'-O-(3-[35S]thio)triphosphate [GTPγS] Binding Assay; assay type: biochemical; details: antagonist activity; membranes from CHO cells expressing hH3R, (R)-α-methyl histamine 30 nM, [35S]GTPγS 0.2 nM, 90 minutes
T1 construct: expressed in transfected cells; host or cells: CHO cells (membranes)
Description: Guanosine 5′-O-(3-[^35]thio)triphosphate [GTPγS] Binding Assay
The GTPγS binding assay can be used to investigate antagonist properties of compounds in CHO cells (Chinese Hamster Ovary) transfected with human Histamine H3 receptor (hH3R). […] To determine antagonist activity, (R)-α-methyl histamine (30 nM) is added in 96 well SPA plate with [^35S]GTPγS (0.2 nM) and various concentration of H3R antagonists. The GTPγS binding assay is started with addition of the mixture membrane/saponine/GDP and incubated for 90 minutes at room temperature. The amount of bound [^35S]GTPγS is determined by using the MicroBeta Trilux counter (PerkinElmer). The percentage of [^35S]GTPγS bound in each sample is calculated as a percentage of that bound control sample incubated in absence of H3 antagonist. Duplicate determinations are obtained for each concentration, and the data are analyzed using ExcelFit4 to obtain the IC50.

T1 sequence (Q9Y5N1 whole entry): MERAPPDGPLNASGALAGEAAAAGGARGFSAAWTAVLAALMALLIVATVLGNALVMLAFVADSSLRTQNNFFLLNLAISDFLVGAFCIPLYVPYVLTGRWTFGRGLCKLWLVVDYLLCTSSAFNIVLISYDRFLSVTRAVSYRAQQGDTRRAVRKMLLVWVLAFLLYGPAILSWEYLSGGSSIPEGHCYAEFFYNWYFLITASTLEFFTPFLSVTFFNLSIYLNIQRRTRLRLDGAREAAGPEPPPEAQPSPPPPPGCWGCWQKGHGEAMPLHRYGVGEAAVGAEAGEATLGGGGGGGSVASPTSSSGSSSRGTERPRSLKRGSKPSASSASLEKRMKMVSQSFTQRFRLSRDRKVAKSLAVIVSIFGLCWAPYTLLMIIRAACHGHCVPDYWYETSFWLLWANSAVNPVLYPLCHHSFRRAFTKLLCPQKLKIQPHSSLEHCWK
human histamine H3 receptors (full-length H3, isoform 445), sequence (Q9Y5N1 whole entry, canonical isoform): as the sequence (Q9Y5N1 whole entry) above

Molecule `O=C(C1CC12CCN(C1CCCCC1)CC2)N1CCN(C2CCC2)CC1` (single isomer, unassigned) [Example 27, (4-Cyclobutyl-piperazin-1-yl)-(6-cyclohexyl-6-aza-spiro[2.5]oct-1-yl)-methanone] has an IC50 [1] of 7.68 nM and an IC50 [2] of 0.044 µM.
`CC(C)N1CCN(C(=O)C2CC23CCN(C2CCOCC2)CC3)CC1` (single isomer, unassigned) [Example 28, (4-Isopropyl-piperazin-1-yl)-[6-(tetrahydro-pyran-4-yl)-6-aza-spiro[2.5]oct-1-yl]-methanone] was tested, and the IC50 [1] was 2.66 nM and the IC50 [2] was 0.0132 µM.
With `CC(C)N1CCN(C(=O)C2CC23CCN(C2CCOCC2)CC3)CC1` (single isomer, unassigned) [Example 29, (4-Isopropyl-piperazin-1-yl)-[6-(tetrahydro-pyran-4-yl)-6-aza-spiro[2.5]oct-1-yl]-methanone] the IC50 [1] was 50.9 nM and the IC50 [2] was 0.0875 µM.
In the case of `O=C(C1CC12CCN(C1CCOCC1)CC2)N1CCN(C2CCCCC2)CC1` (centres unmarked) [Example 1, (4-Cyclohexyl-piperazin-1-yl)-[6-(tetrahydro-pyran-4-yl)-6-aza-spiro[2.5]oct-1-yl]-methanone], the IC50 [1] is reported as 33.6 nM and the IC50 [2] is reported as 0.013 µM.
`CN1CCN(C(=O)C2CC23CCN(C2CCOCC2)CC3)CC1` (centres unmarked) [Example 7, (4-Methyl-piperazin-1-yl)-[6-(tetrahydro-pyran-4-yl)-6-aza-spiro[2.5]oct-1-yl]-methasone] was tested, and the IC50 [1] was 1400 nM and the IC50 [2] was 1.2 µM.
For `O=C(C1CC12CCN(C1CCOCC1)CC2)N1CCN(C2CCC2)CC1` (centres unmarked) [Example 8, (4-Cyclobutylpiperazin-1-yl)(6-(tetrahydro-2H-pyran-4-yl)-6-azaspiro[2.5]octan-1-yl)methanone], the IC50 [1] was 4.1 nM and the IC50 [2] was 0.00366 µM.
Work on `O=C(C1CC12CCN(C1CCOCC1)CC2)N1CCN(C2CC2)CC1` (centres unmarked) [Example 9, (4-Cyclopropylpiperazin-1-yl)(6-(tetrahydro-2H-pyran-4-yl)-6-azaspiro[2.5]octan-1-yl)methanone] yielded an IC50 [1] of 33.5 nM and an IC50 [2] of 0.019 µM.
With `CC(C)N1CCN(C(=O)C2CC23CCN(C2CCOCC2)CC3)CC1` (centres unmarked) [Example 10, (4-Isopropylpiperazin-1-yl)(6-(tetrahydro-2H-pyran-4-yl)-6-azaspiro[2.5]octan-1-yl)methanone] the IC50 [1] was 9.02 nM and the IC50 [2] was 0.00325 µM.
In the case of `O=C(C1CC12CCN(C1CCOCC1)CC2)N1CCN(C2CCCCCC2)CC1` (centres unmarked) [Example 11, (4-Cycloheptylpiperazin-1-yl)(6-(tetrahydro-2H-pyran-4-yl)-6-azaspiro[2.5]octan-1-yl)methanone], the IC50 [1] is reported as 196 nM and the IC50 [2] is reported as 0.074 µM.
In the case of `O=C(C1CC12CCN(C1CCOCC1)CC2)N1CCN(C2CCCC2)CC1` (centres unmarked) [Example 12, (4-cyclopentylpiperazin-1-yl)(6-(tetrahydro-2H-pyran-4-yl)-6-azaspiro[2.5]octan-1-yl)methanone], the IC50 [1] is reported as 4.43 nM and the IC50 [2] is reported as 0.0088 µM.
In the case of `O=C(C1CC12CCN(C1CCOCC1)CC2)N1CCN(c2ccncc2)CC1` (centres unmarked) [Example 14, (4-Pyridin-4-yl-piperazin-1-yl)-[6-(tetrahydro-pyran-4-yl)-6-aza-spiro[2.5]oct-1-yl]-methanone], the IC50 [1] is reported as 26.1 nM and the IC50 [2] is reported as 0.139 µM.
`O=C(C1CC12CCN(CCc1ccccc1)CC2)N1CCN(C2CCCCC2)CC1` (centres unmarked) [Example 16, (4-Cyclohexyl-piperazin-1-yl)-(6-phenethyl-6-aza-spiro[2.5]oct-1-yl)-methanone] gave an IC50 [1] of 65.2 nM and an IC50 [2] of 0.0165 µM.
`O=C(C1CC12CCN(C1CCCCC1)CC2)N1CCN(C2CCCCC2)CC1` (centres unmarked) [Example 19, (6-Cyclohexyl-6-aza-spiro[2.5]oct-1-yl)-(4-cyclohexyl-piperazin-1-yl)-methanone] gave an IC50 [1] of 56.5 nM and an IC50 [2] of 0.0101 µM.
`CN1CCC(N2CCC3(CC2)CC3C(=O)N2CCN(C3CCCCC3)CC2)CC1` (centres unmarked) [Example 20, (4-Cyclohexyl-piperazin-1-yl)-[6-(1-methyl-piperidin-4-yl)-6-aza-spiro[2.5]oct-1-yl]-methanone] showed an IC50 [1] of 97.2 nM and an IC50 [2] of 0.0225 µM.
For `CC(C)N1CCC2(CC1)CC2C(=O)N1CCN(C2CCCCC2)CC1` (centres unmarked) [Example 21, (4-Cyclohexyl-piperazin-1-yl)-(6-isopropyl-6-aza-spiro[2.5]oct-1-yl)-methanone], the IC50 [1] was 141 nM and the IC50 [2] was 0.0193 µM.
For `O=C(C1CC12CCN(C1CCC1)CC2)N1CCN(C2CCOCC2)CC1` (centres unmarked) [Example 22, (6-Cyclobutyl-6-aza-spiro[2.5]oct-1-yl)-[4-(tetrahydro-pyran-4-yl)-piperazin-1-yl]-methanone], the IC50 [1] was 209 nM and the IC50 [2] was 0.067 µM.
With `O=C(C1CC12CCN(C1CCCSC1)CC2)N1CCN(C2CCC2)CC1` (centres unmarked) [Example 30, (4-Cyclobutyl-piperazin-1-yl)-[6-(tetrahydro-thiopyran-3-yl)-6-aza-spiro[2.5]oct-1-yl]-methanone] the IC50 [1] was 10.1 nM and the IC50 [2] was 0.0143 µM.
Molecule `O=C(C1CC12CCN(C1CCCCC1)CC2)N1CCN(C2CCC2)CC1` (centres unmarked) [Example 31, (4-Cyclobutyl-piperazin-1-yl)-(6-cyclohexyl-6-aza-spiro[2.5]oct-1-yl)-methanone] has an IC50 [1] of 11.3 nM and an IC50 [2] of 0.0135 µM.
For `O=C(C1CC12CCN(C1CCCOC1)CC2)N1CCN(C2CCC2)CC1` (centres unmarked) [Example 32, (4-Cyclobutyl-piperazin-1-yl)-[6-(tetrahydro-pyran-3-yl)-6-aza-spiro[2.5]oct-1-yl]-methanone], the IC50 [1] was 15 nM and the IC50 [2] was 0.017 µM.
`O=C(C1CC12CCN(C1CCOC1)CC2)N1CCN(C2CCC2)CC1` (centres unmarked) [Example 33, (4-Cyclobutyl-piperazin-1-yl)-[6-(tetrahydro-furan-3-yl)-6-aza-spiro[2.5]oct-1-yl]-methanone] was tested, and the IC50 [1] was 35.1 nM and the IC50 [2] was 0.0055 µM.
In the case of `O=C(C1CC12CCN(CCN1CCOCC1)CC2)N1CCN(C2CCC2)CC1` (centres unmarked) [Example 34, (4-Cyclobutyl-piperazin-1-yl)-[6-(2-morpholin-4-yl-ethyl)-6-aza-spiro[2.5]oct-1-yl]-methanone], the IC50 [1] is reported as 24.4 nM and the IC50 [2] is reported as 0.0135 µM.
In the case of `O=C(C1CC12CCN(c1ccncc1)CC2)N1CCN(C2CCCCC2)CC1` (centres unmarked) [Example 35, (4-Cyclohexyl-piperazin-1-yl)-(6-pyridin-4-yl-6-aza-spiro[2.5]oct-1-yl)-methanone], the IC50 [1] is reported as 165 nM and the IC50 [2] is reported as 0.0853 µM.

Source: patent US20100168105A1, “Spirocyclopropyl Piperidine Derivatives” (priority 2007, published 2010)
